Assay results from patent US6274715A, “Tricyclic erythromycin derivatives” (priority 1997, dated 2001).
Values after ≈ are worked out from the molar mass of the structure shown.

Legend:
Format in all cases: cell-based
[1] = test system: STAPHYLOCOCCUS AUREUS CMX 642A; assay: In vitro antibacterial activity, MIC, BHI agar dilution; details: S. aureus CMX 642A, unit assumed
[2] = test system: STREPTOCOCCUS PYOGENES PIU 2548; assay: as above; details: S. pyogenes PIU 2548, unit assumed
[3] = test system: STREPTOCOCCUS BOVIS A-5169; assay: as above; details: S. bovis A-5169, unit assumed
[4] = test system: CANDIDA ALBICANS CCH 442; assay: as above; details: C. albicans CCH 442, unit assumed
[5] = test system: PROVIDENCIA STUARTII CMX 640; details: P. stuartii CMX 640; BHI agar; unit assumed
[6] = test system: STAPHYLOCOCCUS EPIDERMIDIS 3519; details: S. epidermidis 3519; BHI agar; unit assumed
[7] = test system: STAPHYLOCOCCUS AUREUS CMX 553; assay: In vitro antibacterial activity, MIC, BHI agar dilution; details: S. aureus CMX 553, unit assumed
[8] = test system: ESCHERICHIA COLI JUHL; details: E. coli JUHL; BHI agar; unit assumed
[9] = test system: ESCHERICHIA COLI KNK 437; details: E. coli KNK 437; BHI agar; unit assumed
[10] = test system: STAPHYLOCOCCUS AUREUS A-5278; assay: In vitro antibacterial activity, MIC, BHI agar dilution; details: S. aureus A-5278, unit assumed
[11] = test system: STREPTOCOCCUS PYOGENES EES61; assay: as above; details: S. pyogenes EES61, unit assumed
[12] = test system: ENTEROBACTER AEROGENES ATCC 13048; assay: as above; details: E. aerogenes ATCC 13048, unit assumed
[13] = test system: PSEUDOMONAS AERUGINOSA DPHD-5263; assay: as above; details: P. aeruginosa DPHD-5263, unit assumed
[14] = test system: ESCHERICHIA COLI DC-2; assay: as above; details: E. coli DC-2, unit assumed
[15] = test system: PSEUDOMONAS AERUGINOSA K799/61; assay: as above; details: P. aeruginosa K799/61, unit assumed
[16] = test system: STAPHYLOCOCCUS AUREUS 1775; assay: as above; details: S. aureus 1775, unit assumed
[17] = test system: STREPTOCOCCUS PYOGENES 930; assay: as above; details: S. pyogenes 930, unit assumed
[18] = test system: STAPHYLOCOCCUS AUREUS ATCC 6538P; assay: as above; details: S. aureus ATCC 6538P, 35-37° C., 20 to 24 hours, unit assumed
[19] = test system: ESCHERICHIA COLI SS; assay: as above; details: E. coli SS, unit assumed
[20] = test system: ESCHERICHIA COLI H560; assay: as above; details: E. coli H560, unit assumed
[21] = test system: STAPHYLOCOCCUS AUREUS A5177; assay: as above; details: S. aureus A5177, unit assumed
[22] = test system: PSEUDOMONAS AERUGINOSA DPHD-2862; assay: as above; details: P. aeruginosa DPHD-2862, unit assumed
[23] = test system: PSEUDOMONAS AERUGINOSA K799/WT; assay: as above; details: P. aeruginosa K799/WT, unit assumed
[24] = test system: PSEUDOMONAS AERUGINOSA BMH10; assay: as above; details: P. aeruginosa BMH10, unit assumed
[25] = test system: PSEUDOMONAS AERUGINOSA 5007; assay: as above; details: P. aeruginosa 5007, unit assumed
[26] = test system: KLEBSIELLA PNEUMONIAE ATCC 8045; assay: as above; details: K. pneumoniae ATCC 8045, unit assumed
[27] = test system: MYCOBACTERIUM SMEGMATIS ATCC 114; assay: as above; details: M. smegmatis ATCC 114, unit assumed
[28] = test system: EN[…] ATCC 8043; assay: as above; details: E. faecium ATCC 8043, unit assumed
Outline: (§1)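 Twelve successive aqueous dilutions of compound in Brain Heart Infusion agar were inoculated with 1:100 culture dilutions (1:10 for slow growers such as Micrococcus, Streptococcus) by Steers replicator and incubated at 35-37° C for 20 to 24 hours. MIC was the lowest concentration giving no growth, slight haze or sparse colonies versus drug-free control.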

[29] = test system: M[…] ATCC 4698; assay: as above; details: M. luteus ATCC 4698, unit assumed
Outline: as §1

[30] = test system: STR[…] 508; assay: as above; details: S. agalactiae CMX 508, unit assumed
Outline: as §1

[31] = test system: M[…] ATCC 9341; assay: as above; details: M. luteus ATCC 9341, unit assumed
Outline: as §1

[32] = test system: PSEUDOMONAS CEPACIA 296I; assay: as above; details: P. cepacia 296I, unit assumed
[33] = test system: ACINETOBACTER CALCOACETICUS CMX 669; assay: as above; details: A. calcoaceticus CMX 669, unit assumed
[34] = test system: STAPHYLOCOCCUS AUREUS NCTC10649M; assay: as above; details: S. aureus NCTC10649M, unit assumed

Compound	MIC [1] [mg/L]	MIC [2] [mg/L]	MIC [3] [mg/L]	MIC [4] [mg/L]	MIC [5] [mg/L]	MIC [6] [mg/L]	MIC [7] [mg/L]	MIC [8] [mg/L]	MIC [9] [mg/L]	MIC [10] [mg/L]	MIC [11] [mg/L]	MIC [12] [mg/L]	MIC [13] [mg/L]	MIC [14] [mg/L]	MIC [15] [mg/L]	MIC [16] [mg/L]	MIC [17] [mg/L]	MIC [18] [mg/L]	MIC [19] [mg/L]	MIC [20] [mg/L]	other results
CC[C@H]1OC(=O)[C@H](C)C(=O)[C@H](C)[C@@H](O[C@@H]2O[C@H](C)C[C@H](N(C)C)[C@H]2O)[C@](C)(OC)C[C@@H](C)C2=N[C@@H]3CN(Cc4ccc(Cl)cc4)C[C@@H]3N3C(=O)O[C@@]1(C)[C@H]3[C@H]2C [Example 24]	0.78 (≈ 0.971 µM)	0.78 (≈ 0.971 µM)	0.05 (≈ 0.0622 µM)	> 100	> 100	0.78 (≈ 0.971 µM)	0.78 (≈ 0.971 µM)	> 100	> 100	> 100	0.05 (≈ 0.0622 µM)	> 100	> 100	> 100	6.2 (≈ 7.72 µM)	> 100	100 (≈ 124 µM)	0.78 (≈ 0.971 µM)	6.2 (≈ 7.72 µM)	> 100	MIC [21]: 0.78 mg/L (≈ 0.971 µM); MIC [22]: > 100 mg/L; MIC [23]: > 100 mg/L; MIC [24]: > 100 mg/L; MIC [25]: > 100 mg/L; MIC [26]: > 100 mg/L; MIC [27]: 1.56 mg/L (≈ 1.94 µM); MIC [28]: 0.2 mg/L (≈ 0.249 µM); MIC [29]: 0.78 mg/L (≈ 0.971 µM); MIC [30]: 0.2 mg/L (≈ 0.249 µM); MIC [31]: 0.2 mg/L (≈ 0.249 µM); MIC [32]: > 100 mg/L; MIC [33]: > 100 mg/L; MIC [34]: 0.78 mg/L (≈ 0.971 µM)
CC[C@H]1OC(=O)[C@H](C)C(=O)[C@H](C)[C@@H](O[C@@H]2O[C@H](C)C[C@H](N(C)C)[C@H]2O)[C@](C)(OC)C[C@@H](C)C2=N[C@@H]3CN(Cc4ccncc4)C[C@@H]3N3C(=O)O[C@@]1(C)[C@H]3[C@H]2C [Example 25]	0.78 (≈ 1.01 µM)	0.78 (≈ 1.01 µM)	0.1 (≈ 0.13 µM)	> 100	> 100	0.78 (≈ 1.01 µM)	0.78 (≈ 1.01 µM)	> 100	> 100	> 100	0.05 (≈ 0.0649 µM)	> 100	> 100	> 100	0.78 (≈ 1.01 µM)	> 100	> 100	0.78 (≈ 1.01 µM)	0.78 (≈ 1.01 µM)	100 (≈ 130 µM)	MIC [21]: 0.78 mg/L (≈ 1.01 µM); MIC [22]: > 100 mg/L; MIC [23]: 100 mg/L (≈ 130 µM); MIC [24]: > 100 mg/L; MIC [25]: > 100 mg/L; MIC [26]: > 100 mg/L; MIC [27]: 3.1 mg/L (≈ 4.03 µM); MIC [28]: 0.1 mg/L (≈ 0.13 µM); MIC [29]: 0.39 mg/L (≈ 0.507 µM); MIC [30]: 0.1 mg/L (≈ 0.13 µM); MIC [31]: 0.1 mg/L (≈ 0.13 µM); MIC [32]: > 100 mg/L; MIC [33]: 100 mg/L (≈ 130 µM); MIC [34]: 0.39 mg/L (≈ 0.507 µM)
CC[C@H]1OC(=O)[C@H](C)C(=O)[C@H](C)[C@@H](O[C@@H]2O[C@H](C)C[C@H](N(C)C)[C@H]2O)[C@](C)(OC)C[C@@H](C)C2=NC[C@@H](COCc3ccccc3)N3C(=O)O[C@@]1(C)[C@H]3[C@H]2C [Example 37]	0.1 (≈ 0.132 µM)	0.39 (≈ 0.515 µM)	≤ 0.005	> 100	> 100	0.1 (≈ 0.132 µM)	0.1 (≈ 0.132 µM)	50 (≈ 66 µM)	25 (≈ 33 µM)	> 100	≤ 0.005	50 (≈ 66 µM)	> 100	25 (≈ 33 µM)	0.78 (≈ 1.03 µM)	> 100	100 (≈ 132 µM)	0.1 (≈ 0.132 µM)	0.39 (≈ 0.515 µM)	25 (≈ 33 µM)	MIC [21]: 0.1 mg/L (≈ 0.132 µM); MIC [22]: > 100 mg/L; MIC [23]: > 100 mg/L; MIC [24]: 50 mg/L (≈ 66 µM); MIC [25]: > 100 mg/L; MIC [26]: 50 mg/L (≈ 66 µM); MIC [27]: 0.39 mg/L (≈ 0.515 µM); MIC [28]: 0.05 mg/L (≈ 0.066 µM); MIC [29]: 0.2 mg/L (≈ 0.264 µM); MIC [30]: 0.02 mg/L (≈ 0.0264 µM); MIC [31]: 0.01 mg/L (≈ 0.0132 µM); MIC [32]: 100 mg/L (≈ 132 µM); MIC [33]: 25 mg/L (≈ 33 µM); MIC [34]: 0.1 mg/L (≈ 0.132 µM)
